Columns and labels:
Assay type in all cases: in vivo
[1] = tested on: umbrella sedge (Cyperus difformis); assay: Test B flooded paddy test plant response; conditions: Cyperus difformis, read-out: Plant response rating, Sedge, Umbrella
Outline: (§1)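 Compounds were added directly to paddy water over 2-leaf-stage plants in pots flooded 3 cm above soil, water depth maintained. Visual injury scored against controls after 13 to 15 days in greenhouse, 0 (none) to 100 (complete control); dash indicates no result.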

[2] = tested on: ducksalad (Heteranthera limosa); assay: Test B flooded paddy test plant response; conditions: Heteranthera limosa, read-out: Plant response rating, Ducksalad
Outline: as §1

[3] = tested on: blackgrass (Alopecurus myosuroides); assay: Test C pre-/postemergence plant response
Outline: (§2)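 Pre/post spray; solvent blend non-phytotoxic, with surfactant; post stage 1–4 leaves (2–18 cm); controlled environment 15–25 d; visual score 0–100 relative to controls, 100 = complete control.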

[4] = tested on: Italian ryegrass (Lolium multiflorum); assay: Test C pre-/postemergence plant response
Outline: as §2

[5] = tested on: spring barley (Hordeum vulgare); assay: Test C pre-/postemergence plant response
Outline: as §2

[6] = tested on: wild mustard (Sinapis arvensis); assay: Test C pre-/postemergence plant response
Outline: as §2

[7] = tested on: spring wheat (Triticum aestivum); assay: Test C pre-/postemergence plant response
Outline: as §2

[8] = tested on: winter barley (Hordeum vulgare); assay: Test C pre-/postemergence plant response
Outline: as §2

[9] = tested on: pigweed (Amaranthus retroflexus); assay: Test C pre-/postemergence plant response
Outline: as §2

[10] = tested on: green foxtail (Setaria viridis); assay: Test C pre-/postemergence plant response
Outline: as §2

[11] = tested on: annual bluegrass (Poa annua); assay: Test C pre-/postemergence plant response
Outline: as §2

[12] = tested on: windgrass (Apera spica-venti); assay: Test C pre-/postemergence plant response
Outline: as §2

[13] = tested on: canarygrass (Phalaris minor); assay: Test C pre-/postemergence plant response
Outline: as §2

[14] = tested on: winter wheat (Triticum aestivum); assay: Test C pre-/postemergence plant response
Outline: as §2

wild oat (Avena fatua) = assay: Test C pre-/postemergence plant response
Outline: as §2

[15] = tested on: downy bromegrass (Bromus tectorum); assay: Test C pre-/postemergence plant response
Outline: as §2

[16] = Flood (flooded paddy test), 62 g ai/ha, scale 0 to 100, 0 no effect, 100 complete control
[17] = Flood (flooded paddy test), 250 g ai/ha, scale 0 to 100, 0 no effect, 100 complete control
[18] = Flood, 31 g ai/ha, scale 0 to 100
[19] = Postemergence, 8 g ai/ha, scale 0 to 100, 0 no effect, 100 complete control
[20] = Postemergence, 16 g ai/ha, scale 0 to 100, 0 no effect, 100 complete control
[21] = Postemergence, 31 g ai/ha, scale 0 to 100, 0 no effect, 100 complete control
[22] = Postemergence, 62 g ai/ha, scale 0 to 100, 0 no effect, 100 complete control
[23] = Preemergence, 8 g ai/ha, scale 0 to 100 (0 no effect, 100 complete control)
[24] = Preemergence, 16 g ai/ha, scale 0 to 100 (0 no effect, 100 complete control)
[25] = Preemergence, 62 g ai/ha, scale 0 to 100, 0 no effect, 100 complete control
[26] = Preemergence, 31 g ai/ha, scale 0 to 100 (0 no effect, 100 complete control)

CCc1c(C)c(-c2ccc(Cl)cc2)nn1-c1c(O)cnn(C)c1=O [Compound 26, 4-[3-(4-chlorophenyl)-5-ethyl-4-methyl-1H-pyrazol-1-yl]-5-hydroxy-2-methyl-3(2H)-pyridazinone]
pest or weed control at 62 g/ha [1, 16]: 0%
pest or weed control at 125 g/ha ([1]; Flood (flooded paddy test), 125 g ai/ha, scale 0 to 100, 0 no effect, 100 complete control): 0%
pest or weed control at 250 g/ha [1, 17]: 75%
pest or weed control at 31 g/ha [1, 18]: 0%
pest or weed control at 62 g/ha [2, 16]: 50%
pest or weed control at 250 g/ha [2, 17]: 70%
pest or weed control at 31 g/ha [2, 18]: 40%
Plant response rating, Blackgrass [3, 19]: 50
Plant response rating, Blackgrass [3, 20]: 50
Plant response rating, Blackgrass [3, 21]: 70
Plant response rating, Blackgrass [3, 22]: 95
Plant response rating, Blackgrass [3, 23]: 20
Plant response rating, Blackgrass [3, 24]: 50
Plant response rating, Blackgrass [3, 25]: 75
Plant response rating, Ryegrass, Italian [4, 19]: 70
Plant response rating, Ryegrass, Italian [4, 20]: 85
Plant response rating, Ryegrass, Italian [4, 21]: 95
Plant response rating, Ryegrass, Italian [4, 22]: 100
Plant response rating, Ryegrass, Italian [4, 23]: 15
Plant response rating, Ryegrass, Italian [4, 24]: 75
Plant response rating, Ryegrass, Italian [4, 26]: 100
Plant response rating, Ryegrass, Italian [4, 25]: 100
Plant response rating, Barley, Spring [5, 19]: 0
Plant response rating, Barley, Spring [5, 20]: 0
Plant response rating, Barley, Spring [5, 21]: 35
Plant response rating, Barley, Spring [5, 22]: 50
Plant response rating, Barley, Spring [5, 23]: 0
Plant response rating, Barley, Spring [5, 24]: 0
Plant response rating, Barley, Spring [5, 26]: 25
Plant response rating, Barley, Spring [5, 25]: 35
Plant response rating, Mustard, Wild [6, 19]: 0
Plant response rating, Mustard, Wild [6, 20]: 0
Plant response rating, Mustard, Wild [6, 23]: 0
Plant response rating, Mustard, Wild [6, 24]: 0
Plant response rating, Mustard, Wild [6, 26]: 0
Plant response rating, Mustard, Wild [6, 25]: 0
Plant response rating, Wheat, Spring [7, 19]: 10
Plant response rating, Wheat, Spring [7, 20]: 10
Plant response rating, Wheat, Spring [7, 21]: 30
Plant response rating, Wheat, Spring [7, 22]: 30
Plant response rating, Wheat, Spring [7, 23]: 0
Plant response rating, Wheat, Spring [7, 24]: 0
Plant response rating, Wheat, Spring [7, 26]: 25
Plant response rating, Wheat, Spring [7, 25]: 25
Plant response rating, Barley, Winter [8, 19]: 0
Plant response rating, Barley, Winter [8, 20]: 0
Plant response rating, Barley, Winter [8, 21]: 10
Plant response rating, Barley, Winter [8, 22]: 40
Plant response rating, Barley, Winter [8, 23]: 0
Plant response rating, Barley, Winter [8, 24]: 0
Plant response rating, Barley, Winter [8, 26]: 10
Plant response rating, Barley, Winter [8, 25]: 10
Plant response rating, Pigweed [9, 19]: 0
Plant response rating, Pigweed [9, 20]: 0
Plant response rating, Pigweed [9, 21]: 0
Plant response rating, Pigweed [9, 22]: 20
Plant response rating, Pigweed [9, 23]: 0
Plant response rating, Pigweed [9, 24]: 0
Plant response rating, Pigweed [9, 26]: 0
Plant response rating, Pigweed [9, 25]: 20
Plant response rating, Foxtail, Green [10, 19]: 90
Plant response rating, Foxtail, Green [10, 20]: 95
Plant response rating, Foxtail, Green [10, 21]: 95
Plant response rating, Foxtail, Green [10, 22]: 98
Plant response rating, Foxtail, Green [10, 23]: 0
Plant response rating, Foxtail, Green [10, 24]: 0
Plant response rating, Foxtail, Green [10, 26]: 75
Plant response rating, Foxtail, Green [10, 25]: 100
Plant response rating, Bluegrass [11, 19]: 0
Plant response rating, Bluegrass [11, 20]: 0
Plant response rating, Bluegrass [11, 21]: 0
Plant response rating, Bluegrass [11, 22]: 15
Plant response rating, Bluegrass [11, 23]: 0
Plant response rating, Bluegrass [11, 24]: 0
Plant response rating, Bluegrass [11, 26]: 0
Plant response rating, Bluegrass [11, 25]: 0
Plant response rating, Windgrass [12, 19]: 0
Plant response rating, Windgrass [12, 20]: 0
Plant response rating, Windgrass [12, 21]: 20
Plant response rating, Windgrass [12, 22]: 65
Plant response rating, Windgrass [12, 23]: 30
Plant response rating, Windgrass [12, 24]: 30
Plant response rating, Windgrass [12, 26]: 98
Plant response rating, Windgrass [12, 25]: 100
Plant response rating, Canarygrass [13, 19]: 25
Plant response rating, Canarygrass [13, 20]: 75
Plant response rating, Canarygrass [13, 21]: 75
Plant response rating, Canarygrass [13, 22]: 100
Plant response rating, Canarygrass [13, 23]: 0
Plant response rating, Canarygrass [13, 24]: 0
Plant response rating, Canarygrass [13, 26]: 65
Plant response rating, Canarygrass [13, 25]: 70
Plant response rating, Wheat, Winter [14, 19]: 0
Plant response rating, Wheat, Winter [14, 20]: 0
Plant response rating, Wheat, Winter [14, 21]: 30
Plant response rating, Wheat, Winter [14, 22]: 35
Plant response rating, Wheat, Winter [14, 23]: 0
Plant response rating, Wheat, Winter [14, 24]: 0
Plant response rating, Wheat, Winter [14, 26]: 0
Plant response rating, Wheat, Winter [14, 25]: 25
Plant response rating, Oat, Wild (wild oat (Avena fatua); [19]): 70
Plant response rating, Oat, Wild (wild oat (Avena fatua); [20]): 98
Plant response rating, Oat, Wild (wild oat (Avena fatua); [21]): 98
Plant response rating, Oat, Wild (wild oat (Avena fatua); [22]): 100
Plant response rating, Oat, Wild (wild oat (Avena fatua); [23]): 0
Plant response rating, Oat, Wild (wild oat (Avena fatua); [24]): 15
Plant response rating, Oat, Wild (wild oat (Avena fatua); [26]): 65
Plant response rating, Oat, Wild (wild oat (Avena fatua); [25]): 75
Plant response rating, Bromegrass, Downy [15, 19]: 0
Plant response rating, Bromegrass, Downy [15, 20]: 0
Plant response rating, Bromegrass, Downy [15, 21]: 0
Plant response rating, Bromegrass, Downy [15, 22]: 0
Plant response rating, Bromegrass, Downy [15, 23]: 0
Plant response rating, Bromegrass, Downy [15, 24]: 0
Plant response rating, Bromegrass, Downy [15, 26]: 0
Plant response rating, Bromegrass, Downy [15, 25]: 20

— patent US20100267561A1, “HERBICIDAL PYRIDAZINONE DERIVATIVES” (priority 2007, published 2010)
